Entries after “also recorded” stand apart in the source; their conditions may differ.
What was measured:
[1] = molecular target: T1, Nurr1-LBD_Gal4-DBD chimeric protein (Homo sapiens, UniProt P43354); experiment: Nurr1-LBD_Gal4-DBD luciferase reporter assay in MN9D cells; type: cell-based; conditions: 6 h treatment
T1 construct: prepared by subcloning the Nurr1 LBD fragment into […] plasmid (Clontech) containing GAL4 DBD; expressed in transfected cells; host or cells: MN9D TET-ON cells
Description: (§1) Luciferase Reporter Assays. These assays were executed using standard protocols. MN9D TET-ON cells (P5) were grown for 60-72 h (see above) before being seeded at 1-10^5 cell/well in 24-well plate in DMEM/F12+5% TET-ON approved FBS 3 h before transfection. Cells were transfected using Lipofectamine 2000 (Invitrogen) and plasmid DNAs according to manufacturer's instructions. Lipofectamine/DNA complexes were prepared in Opti-Mem medium (Gibco) and incubated with cells overnight. The Nurr1-LBD_Gal4-DBD expressing plasmid was prepared by subcloning the Nurr1 LBD fragment into […] plasmid (Clontech) containing GAL4 DBD. […] Transfected cells were treated with increasing concentrations of 5-chloroindole or vehicle only for 6 h, after which time the media was aspirated and luciferase activity was measured. […] Resulting solutions were transferred to a white opaque 96-well plate (65 μL/well; 3 wells/sample) and firefly luciferase activity was measured using Veritas Microplate Luminometer (Turner BioSystems, Sunnyvale, Calif.). […] Renilla luciferase activity was measured after 20 min of incubation of the plate inside the luminometer. Experimental values are expressed as the average of firefly/renilla luciferase activity±standard deviation (for three independent biological replicates). […]

[2] = system: Nurr1 (siRNA knockdown) in MN9D cells; experiment: Nurr1 knockdown (siRNA) assay with qPCR of target genes in MN9D cells; type: cell-based, mouse; conditions: 10 μM, 24 h, Nurr1 siRNA vs control siRNA
Description: Nurr1 knockdown (siRNA) assays were completed according to standard protocols. Briefly, MN9D cells were resuspended in DMEM/F-12 with 5% FBS at 1·10^6 cells/mL, and reverse-transfected with either control or Nurr1 siRNAs (40 nM final concentration) by combining 4 mL of cell suspension with 1 mL of Opti-MEM containing 200 nM siRNA and 10 μL Lipofectamine 2000 (Invitrogen, cat #:11668019). The resulting cell suspension was plated on poly-D-lysine treated six-well plates at 2.5 mL/well, and allowed to incubate for 24 h at 37° C., in 5% CO2 incubator. After 24 hours, the cells were trypsinized, resuspended in DMEM/F-12 with 5% FBS at 2·10^5 cells/mL, mixed with equal volume of 20 μM 5-chloroindole in the same media containing 0.2% DMSO (prepared by diluting DMSO stock of 5-chloroindole (10 mM) in warm DMEM/F-12 with 5% FBS; for the DMSO control an equivalent volume of DMSO was used instead of the compound stock), and immediately re-plated on poly-D-lysine pre-treated 24-well plates at 1-10^5 cells/well and incubated as above. After 24 hours, total RNA was isolated and the target gene transcription assay (qPCR) was performed as described above. Nurr1 siRNA N1 were purchased from Sigma (Cat No. SASI_Mm02_00322368), and the sequences were as follows: 5′-GAA UCA GCU UUC UUA GAA U[dT][dT]-3′ (SEQ ID NO:17) (sense) and 5′-AUU CUA AGA AAG CUG AUU C[dT][dT]-3′ (SEQ ID NO:18) (antisense). […]

[3] = molecular target: T2, full-length Nurr1 (NBRE response element) (Mus musculus, UniProt Q06219); experiment: Full-length Nurr1 NBRE luciferase reporter assay in MN9D cells; type: cell-based; conditions: 6 h treatment
T2 construct: a cell line derived from dopaminergic neurons which endogenously expresses full length Nurr1 and its target genes; endogenous in cells; host or cells: MN9D TET-ON cells
Description: as §1, with “DBD. The reporter plasmid pGL4.35 (luc2P/9XGAL4 UAS/Hygro) Vector (Promega) contains nine repeats of GAL4 UAS (Upstream Activator Sequence) and drives transcription of the luciferase reporter gene luc2P in response to binding of Nurr-LBD_Gal4-DBD chimeric protein. The pRL-null (Promega) plasmid expressing renilla luciferase was used as an internal control. […] Alternatively, cells were co-transfected with the reporter plasmid NBREx3-POMC-Luc containing three copies of the NBRE sequence ([NT] ID NO:23)) subcloned into the pXP1-luc plasmid containing the minimal (positions -34 to +63) POMC promoter as described previously^7, and the pRL-null plasmid.” for “DBD.”, “measured. Cells from each well were incubated for 15 min with 220 μL/well of Dual-Glo® Luciferase Reagent (Promega) at room temperature upon rotation on the orbital shaker.” for “measured.”

T1 sequence (P43354 360-595 limits assumed, change not shown): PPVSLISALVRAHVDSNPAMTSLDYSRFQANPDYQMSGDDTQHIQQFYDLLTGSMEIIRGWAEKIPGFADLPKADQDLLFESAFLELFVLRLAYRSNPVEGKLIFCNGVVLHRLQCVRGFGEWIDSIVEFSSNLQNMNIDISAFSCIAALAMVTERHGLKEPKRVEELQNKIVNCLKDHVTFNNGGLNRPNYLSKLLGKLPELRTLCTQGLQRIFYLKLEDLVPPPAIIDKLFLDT
T2 sequence (Q06219 whole entry): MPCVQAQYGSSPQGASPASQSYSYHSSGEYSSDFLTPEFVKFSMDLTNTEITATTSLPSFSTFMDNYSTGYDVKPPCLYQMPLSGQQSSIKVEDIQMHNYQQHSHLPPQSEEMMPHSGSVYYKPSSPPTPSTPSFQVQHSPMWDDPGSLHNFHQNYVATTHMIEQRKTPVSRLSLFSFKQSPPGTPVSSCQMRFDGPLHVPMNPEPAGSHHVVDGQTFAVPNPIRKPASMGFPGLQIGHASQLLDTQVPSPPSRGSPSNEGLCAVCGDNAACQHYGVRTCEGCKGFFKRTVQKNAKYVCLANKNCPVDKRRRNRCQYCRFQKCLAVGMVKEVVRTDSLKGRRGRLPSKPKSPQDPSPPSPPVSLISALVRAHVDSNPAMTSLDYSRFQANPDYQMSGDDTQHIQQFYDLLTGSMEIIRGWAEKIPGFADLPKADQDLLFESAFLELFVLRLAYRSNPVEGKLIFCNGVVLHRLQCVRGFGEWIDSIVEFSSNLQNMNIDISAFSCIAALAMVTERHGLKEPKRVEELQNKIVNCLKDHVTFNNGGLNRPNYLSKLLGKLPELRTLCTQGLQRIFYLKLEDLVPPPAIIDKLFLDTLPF

SMILES: Clc1ccc2[nH]ccc2c1 [5-chloroindole]
- Luciferase production, Nurr1-LBD_Gal4-DBD reporter [1]: stimulates production of luciferase; also recorded: stimulates the activity of Nurr1
- Effect on expression of Th and Vmat2 with knockdown of Nurr1 [2]: significantly reduced in the presence of Nurr1 siRNA, but not control siRNA; also recorded: inhibited by siRNA specific for Nurr1
- Luciferase production, full-length Nurr1 NBRE reporter [3]: stimulates production of luciferase; also recorded: stimulates the activity of Nurr1

Source: patent US20230255934A1, “NURR1 RECEPTOR MODULATORS AND USES THEREOF” (The Regents of the University of California, priority 2020, published 2023)
